Experimental data: the CheMixHub viscosity set
Values joined by “and” are separate entries in the source; they are usually repeats but may differ in a detail not shown here. Identical values can stand only once.

BrC(Br)Br
viscosity
Settings | 298 K | 298.15 K | 303.15 K | 308.15 K | 313.15 K | 318 K
101 kPa | – | – | 1.843 mPa·s and 1.861 mPa·s | 1.729 mPa·s and 1.746 mPa·s | 1.623 mPa·s and 1.641 mPa·s | –
101.3 kPa | 1.873 mPa·s | 1.912 mPa·s | 1.79 mPa·s | 1.684 mPa·s | – | –
101.33 kPa | – | 1.912 mPa·s and 1.977 mPa·s | 1.79 mPa·s and 1.857 mPa·s | 1.684 mPa·s and 1.733 mPa·s | – | 1.476 mPa·s

BrC(Br)C(Br)Br
101 kPa
Settings | viscosity [mPa·s]
298.08 K | 9.687
308.11 K | 7.313
313.11 K | 6.406

C=Cc1ccccc1
101 kPa
Settings | viscosity
298.15 K | 1.07 mPa·s and 0.695 mPa·s
308.15 K | 0.618 mPa·s
313.15 K | 0.573 mPa·s

CC#N
Settings | viscosity
293.15 K, 101.32 kPa | 0.3579 mPa·s
293.15 K, 101.33 kPa | 0.408 mPa·s and 0.383 mPa·s
297.92 K, 101 kPa | 0.3538 mPa·s
298.15 K, 100 kPa | 0.3479 mPa·s and 0.3462 mPa·s and 0.338 mPa·s
298.15 K, 101.3 kPa | 0.335 mPa·s and 0.346 mPa·s
298.15 K, 101.33 kPa | 0.39 mPa·s and 0.361 mPa·s and 0.345 mPa·s
301.67 K, 101 kPa | 0.3418 mPa·s
303 K, 100 kPa | 0.3485 mPa·s
303.15 K, 100 kPa | 0.3332 mPa·s and 0.3307 mPa·s
303.15 K, 101.3 kPa | 0.326 mPa·s
303.15 K, 101.33 kPa | 0.371 mPa·s and 0.333 mPa·s
303.61 K, 101 kPa | 0.3353 mPa·s
305.61 K, 101 kPa | 0.3294 mPa·s
308 K, 100 kPa | 0.3285 mPa·s
308 K, 101 kPa | 0.3205 mPa·s
308.15 K, 100 kPa | 0.3196 mPa·s and 0.3165 mPa·s
308.15 K, 101.3 kPa | 0.314 mPa·s and 0.306 mPa·s
308.15 K, 101.33 kPa | 0.319 mPa·s
308.76 K, 101 kPa | 0.3201 mPa·s
311.67 K, 101 kPa | 0.3112 mPa·s
313 K, 100 kPa | 0.3102 mPa·s
313.15 K, 100 kPa | 0.3071 mPa·s and 0.298 mPa·s
313.15 K, 101.3 kPa | 0.291 mPa·s
313.15 K, 101.32 kPa | 0.2974 mPa·s
313.15 K, 101.33 kPa | 0.337 mPa·s
318 K, 101 kPa | 0.2908 mPa·s
323.15 K, 100 kPa | 0.2849 mPa·s and 0.2624 mPa·s
323.15 K, 101.32 kPa | 0.2729 mPa·s
323.15 K, 101.33 kPa | 0.309 mPa·s

CC(=O)c1ccc(Cl)cc1
303.15 K
Settings | viscosity [mPa·s]
100 kPa | 2.353
101 kPa | 2.353

CC(C)(C)N
viscosity
Settings | 298 K | 298.15 K | 303 K | 303.15 K | 308 K | 308.15 K | 313.15 K
101 kPa | 0.434 mPa·s | 0.4394 mPa·s and 0.439 mPa·s | 0.403 mPa·s | 0.4363 mPa·s and 0.4443 mPa·s | 0.375 mPa·s | 0.4126 mPa·s and 0.4126 mPa·s | –
101.33 kPa | – | 0.4394 mPa·s | – | 0.4088 mPa·s | – | 0.3803 mPa·s | 0.3558 mPa·s

NCCOCCO
101.33 kPa
Settings | viscosity [mPa·s]
298.15 K | 26.66
313.15 K | 13.43
323.15 K | 9.155

O=S(=O)([N-]S(=O)(=O)C(F)(F)F)C(F)(F)F.OCCNCCO.[Li+]
101 kPa
Settings | viscosity [mPa·s]
313.15 K | 1775
318.15 K | 1235
323.15 K | 895
